According to PMC4774911, “Biochemical Screening of Five Protein Kinases from Plasmodium falciparum against 14,000 Cell-Active Compounds” (PLoS ONE, 2016):
Where “and” joins values, the source holds several entries; their conditions need not be identical. Equal values may be shown once.

Experiments:
Assay in all cases: biochemical
Design in all cases: endogenous in cells; host or cells: K562 cell extract; species or system K562 (extract); replicate k of n = 2 (each experiment ID is one independent experiment; two experiment IDs per compound)
Conditions in all cases: read-out: KDapp
TP53RK = target: T1, TP53RK (Homo sapiens, UniProt Q96S44)
T1 sequence (Q96S44 1-253): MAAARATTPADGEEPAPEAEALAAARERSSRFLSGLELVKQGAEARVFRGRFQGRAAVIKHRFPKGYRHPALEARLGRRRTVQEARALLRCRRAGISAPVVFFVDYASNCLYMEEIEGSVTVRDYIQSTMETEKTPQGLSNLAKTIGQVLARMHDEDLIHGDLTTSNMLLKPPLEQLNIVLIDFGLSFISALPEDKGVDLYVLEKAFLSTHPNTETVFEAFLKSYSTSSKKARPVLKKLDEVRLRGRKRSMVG

MAP3K6 = target: T2, MAP3K6 (Homo sapiens, UniProt O95382)
T2 sequence (O95382 1-1288): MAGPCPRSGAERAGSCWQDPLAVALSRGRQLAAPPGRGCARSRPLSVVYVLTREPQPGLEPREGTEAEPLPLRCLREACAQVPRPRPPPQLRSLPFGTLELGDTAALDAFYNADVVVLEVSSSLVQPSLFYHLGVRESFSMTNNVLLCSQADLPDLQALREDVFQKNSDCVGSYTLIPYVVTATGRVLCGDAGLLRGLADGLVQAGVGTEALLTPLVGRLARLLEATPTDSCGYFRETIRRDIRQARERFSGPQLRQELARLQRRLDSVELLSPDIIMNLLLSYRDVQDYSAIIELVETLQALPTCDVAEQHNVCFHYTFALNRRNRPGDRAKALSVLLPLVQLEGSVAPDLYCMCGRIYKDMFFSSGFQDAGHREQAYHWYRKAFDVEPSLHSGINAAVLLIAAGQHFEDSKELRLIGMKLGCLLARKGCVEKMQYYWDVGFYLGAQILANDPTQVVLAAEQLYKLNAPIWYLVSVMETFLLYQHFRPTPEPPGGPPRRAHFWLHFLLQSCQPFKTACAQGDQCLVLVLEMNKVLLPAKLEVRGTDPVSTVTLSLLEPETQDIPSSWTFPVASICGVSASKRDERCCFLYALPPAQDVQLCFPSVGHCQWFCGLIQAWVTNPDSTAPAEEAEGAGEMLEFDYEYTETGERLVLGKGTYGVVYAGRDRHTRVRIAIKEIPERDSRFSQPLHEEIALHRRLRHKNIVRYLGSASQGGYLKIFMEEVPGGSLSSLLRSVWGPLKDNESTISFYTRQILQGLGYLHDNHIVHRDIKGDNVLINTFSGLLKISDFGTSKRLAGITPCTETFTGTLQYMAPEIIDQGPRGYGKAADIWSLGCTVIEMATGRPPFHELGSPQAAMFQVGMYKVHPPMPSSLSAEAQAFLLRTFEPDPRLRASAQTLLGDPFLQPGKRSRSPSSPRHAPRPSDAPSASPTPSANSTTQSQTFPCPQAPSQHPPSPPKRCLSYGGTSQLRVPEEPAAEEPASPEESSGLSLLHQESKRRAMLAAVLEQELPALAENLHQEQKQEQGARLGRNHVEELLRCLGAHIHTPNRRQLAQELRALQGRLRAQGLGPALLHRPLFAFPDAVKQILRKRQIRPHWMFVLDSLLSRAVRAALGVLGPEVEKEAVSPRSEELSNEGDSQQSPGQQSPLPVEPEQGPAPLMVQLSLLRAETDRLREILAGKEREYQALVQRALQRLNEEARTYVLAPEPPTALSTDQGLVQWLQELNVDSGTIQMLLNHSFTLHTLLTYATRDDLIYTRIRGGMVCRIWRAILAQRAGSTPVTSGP

MAP3K1 = MAP3K1 (Homo sapiens, UniProt Q13233)
MAP3K1, sequence (Q13233 whole entry): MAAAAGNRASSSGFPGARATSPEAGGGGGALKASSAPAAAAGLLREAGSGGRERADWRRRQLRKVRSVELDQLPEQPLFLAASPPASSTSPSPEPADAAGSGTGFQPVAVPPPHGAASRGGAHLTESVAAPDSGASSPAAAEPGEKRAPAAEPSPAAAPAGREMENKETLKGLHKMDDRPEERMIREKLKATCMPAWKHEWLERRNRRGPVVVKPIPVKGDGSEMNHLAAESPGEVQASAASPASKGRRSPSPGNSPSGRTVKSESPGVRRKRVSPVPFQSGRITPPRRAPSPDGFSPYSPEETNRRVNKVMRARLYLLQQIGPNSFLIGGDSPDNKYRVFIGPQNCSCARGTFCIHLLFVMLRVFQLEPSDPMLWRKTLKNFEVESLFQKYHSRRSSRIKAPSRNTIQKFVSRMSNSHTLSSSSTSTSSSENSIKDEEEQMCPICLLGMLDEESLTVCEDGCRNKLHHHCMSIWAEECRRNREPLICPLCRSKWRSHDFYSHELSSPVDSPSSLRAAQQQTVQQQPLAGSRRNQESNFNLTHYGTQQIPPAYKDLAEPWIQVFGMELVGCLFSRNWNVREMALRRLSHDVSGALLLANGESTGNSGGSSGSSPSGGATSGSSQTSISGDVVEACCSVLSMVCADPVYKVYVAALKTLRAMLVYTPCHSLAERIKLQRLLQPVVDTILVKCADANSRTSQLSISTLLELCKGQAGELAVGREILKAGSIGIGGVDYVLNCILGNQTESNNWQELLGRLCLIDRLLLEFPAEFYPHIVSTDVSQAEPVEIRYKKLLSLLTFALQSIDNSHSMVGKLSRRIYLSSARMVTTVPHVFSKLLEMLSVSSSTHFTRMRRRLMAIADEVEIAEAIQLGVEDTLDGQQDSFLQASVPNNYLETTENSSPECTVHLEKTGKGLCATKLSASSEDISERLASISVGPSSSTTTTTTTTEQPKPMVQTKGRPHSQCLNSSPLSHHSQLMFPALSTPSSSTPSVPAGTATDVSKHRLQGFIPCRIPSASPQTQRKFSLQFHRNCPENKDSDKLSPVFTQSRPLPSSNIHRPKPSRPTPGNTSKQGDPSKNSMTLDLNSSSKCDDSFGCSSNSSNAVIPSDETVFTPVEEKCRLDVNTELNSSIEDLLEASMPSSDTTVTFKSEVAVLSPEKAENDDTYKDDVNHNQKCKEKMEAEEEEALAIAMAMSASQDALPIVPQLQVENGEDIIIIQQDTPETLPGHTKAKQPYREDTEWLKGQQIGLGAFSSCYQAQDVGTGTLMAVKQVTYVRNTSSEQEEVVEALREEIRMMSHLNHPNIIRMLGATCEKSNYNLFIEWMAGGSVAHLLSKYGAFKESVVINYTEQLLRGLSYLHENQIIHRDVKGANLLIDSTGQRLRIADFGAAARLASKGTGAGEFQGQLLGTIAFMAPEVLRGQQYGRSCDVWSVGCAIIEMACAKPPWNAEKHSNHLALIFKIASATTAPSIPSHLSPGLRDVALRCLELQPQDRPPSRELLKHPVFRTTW

TGFBR1 = target: T3, TGFBR1 (Homo sapiens, UniProt P36897)
T3 sequence (P36897 1-503): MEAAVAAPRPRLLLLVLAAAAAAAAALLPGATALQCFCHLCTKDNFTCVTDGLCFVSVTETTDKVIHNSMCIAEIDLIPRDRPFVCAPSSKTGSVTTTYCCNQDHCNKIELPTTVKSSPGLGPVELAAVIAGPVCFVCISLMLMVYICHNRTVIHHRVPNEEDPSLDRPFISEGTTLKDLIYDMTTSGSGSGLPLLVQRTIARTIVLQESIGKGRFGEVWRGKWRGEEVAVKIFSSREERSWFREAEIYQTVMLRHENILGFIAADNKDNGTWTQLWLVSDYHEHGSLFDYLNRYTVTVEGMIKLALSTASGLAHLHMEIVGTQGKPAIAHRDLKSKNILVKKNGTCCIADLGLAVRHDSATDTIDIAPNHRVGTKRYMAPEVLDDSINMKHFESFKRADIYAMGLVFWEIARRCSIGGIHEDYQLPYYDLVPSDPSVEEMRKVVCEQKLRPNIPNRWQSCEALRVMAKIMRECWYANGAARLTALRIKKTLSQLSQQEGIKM

SMILES | Kd (TP53RK) | Kd (MAP3K6) | Kd (MAP3K1) | Kd (TGFBR1)
CN1CCN(c2ccc(Nc3ncc(C#N)c(Nc4ccccc4C(N)=O)n3)cc2)CC1.Cl [TCMDC-134116] | 3.77 µM | 0.994 µM and 0.87 µM | 0.681 µM | 
Cl.NCC1(c2nc(-c3ccc(Cl)c(O)c3)c(-c3ccncc3)[nH]2)CCCCC1 [TCMDC-141154] |  |  |  | 0.0596 µM and 0.0879 µM
